Article PMC11435058, “Synthesis of New Thiazole-Privileged Chalcones as Tubulin Polymerization Inhibitors with Potential Anticancer Activities” (Pharmaceuticals, 2024)

Legend:
[1] = test system: OVCAR-4; assay: NCI-60 anticancer screen (SRB; single dose and five doses); conditions: Homo sapiens, OVCAR-4, 48 h, read-out: Growth Percentage
[2] = test system: CCRF-CEM; assay: NCI-60 anticancer screen (SRB; single dose 10 μM and five doses); conditions: Homo sapiens, 48 h, read-out: Growth Percentage
[3] = test system: NCI-H460; assay: NCI-60 anticancer screen (SRB; single dose and five doses); conditions: Homo sapiens, NCI-H460, 48 h, read-out: Growth Percentage
[4] = test system: K-562; assay: as above; conditions: Homo sapiens, K562, 48 h, read-out: Growth Percentage
[5] = test system: TK-10; assay: as above; conditions: Homo sapiens, TK-10, 48 h, read-out: Growth Percentage
[6] = test system: ACHN; assay: as above; conditions: Homo sapiens, 48 h, read-out: Growth Percentage
[7] = test system: SK-MEL-28; assay: as above; conditions: Homo sapiens, SK-MEL-28, 48 h, read-out: Growth Percentage
[8] = test system: PC-3; assay: as above; conditions: Homo sapiens, PC-3, 48 h, read-out: Growth Percentage
[9] = test system: NCI/ADR-RES; assay: as above; conditions: Homo sapiens, 48 h, read-out: Growth Percentage
[10] = test system: A498; assay: as above; conditions: Homo sapiens, A498, 48 h, read-out: Growth Percentage, A498; dose of 10 μM
[11] = test system: HCT-15; assay: as above; conditions: Homo sapiens, HCT-15, 48 h, read-out: Growth Percentage
[12] = test system: EKVX; assay: as above; conditions: Homo sapiens, 48 h, read-out: Growth Percentage
[13] = test system: HOP-62; assay: as above; conditions: Homo sapiens, HOP-62, 48 h, read-out: Growth Percentage
[14] = test system: SNB-75; assay: as above; conditions: Homo sapiens, SNB-75, 48 h, read-out: Growth Percentage
[15] = test system: 786-0; assay: as above; conditions: Homo sapiens, 786-0, 48 h, read-out: Growth Percentage
[16] = test system: NCI-H23; assay: as above; conditions: Homo sapiens, NCI-H23, 48 h, read-out: Growth Percentage
[17] = test system: SN12C; assay: as above; conditions: Homo sapiens, 48 h, read-out: Growth Percentage
[18] = test system: BT-549; assay: as above; conditions: Homo sapiens, BT-549, 48 h, read-out: Growth Percentage
[19] = test system: HCC-2998; assay: as above; conditions: Homo sapiens, HCC 2998, 48 h, read-out: Growth Percentage
[20] = test system: DU-145; assay: as above; conditions: Homo sapiens, DU-145, 48 h, read-out: Growth Percentage
[21] = test system: SR; assay: as above; conditions: Homo sapiens, 48 h, read-out: Growth Percentage
[22] = test system: T-47D; assay: as above; conditions: Homo sapiens, T47D, 48 h, read-out: Growth Percentage
[23] = test system: RPMI-8226; assay: as above; conditions: Homo sapiens, RPMI-8226, 48 h, read-out: Growth Percentage
[24] = test system: HT29; assay: as above; conditions: Homo sapiens, HT-29, 48 h, read-out: Growth Percentage
[25] = test system: KM12; assay: as above; conditions: Homo sapiens, KM12, 48 h, read-out: Growth Percentage
[26] = test system: HOP-92; assay: as above; conditions: Homo sapiens, HOP-92, 48 h, read-out: Growth Percentage
[27] = test system: A549/ATCC; assay: as above; conditions: Homo sapiens, A549, 48 h, read-out: Growth Percentage
[28] = test system: COLO 205; assay: as above; conditions: Homo sapiens, COLO 205, 48 h, read-out: Growth Percentage
[29] = test system: LOX IMVI; assay: as above; conditions: Homo sapiens, 48 h, read-out: Growth Percentage

With `Cc1[nH]c(=S)sc1C(=O)/C=C/c1ccc(N(C)C)cc1` [2k, (E)-3-(4-(Dimethylamino)Phenyl)-1-(4-Methyl-2-Thioxo-2,3-Dihydrothiazol-5-yl)Prop-2-En-1-One] the activity at 10 µM [1] was 51.2%, the activity at 10 µM [2] was 68.5% and the activity at 10 µM [3] was 85.7%. For the same molecule, the activity at 10 µM [4] was 47%, the activity at 10 µM [5] was 86.8% and the activity at 10 µM [6] was 75.7%. For the same molecule, the activity at 10 µM [7] was 92.7%, the activity at 10 µM [8] was 71.7% and the activity at 10 µM [9] was 56.9%. For the same molecule, the activity at 10 µM [10] was 130%, the activity at 10 µM [11] was 64.4% and the activity at 10 µM [12] was 67%. The activity at 10 µM [13] was 86.2%, the activity at 10 µM [14] was 96% and the activity at 10 µM [15] was 91.7%. The activity at 10 µM [16] was 71.1%, the activity at 10 µM [17] was 75.7% and the activity at 10 µM [18] was 82.2%. The activity at 10 µM [19] was 95.3%, the activity at 10 µM [20] was 92.8% and the activity at 10 µM [21] was 57.4%. It also gave an activity at 10 µM [22] of 32.4%, an activity at 10 µM [23] of 41.5% and an activity at 10 µM [24] of 94%. The activity at 10 µM [25] was 62.6%, the activity at 10 µM [26] was 119% and the activity at 10 µM [27] was 68.1%. It also gave an activity at 10 µM [28] of 115% and an activity at 10 µM [29] of 60.2%.
